{"source": "paper PMC10817917", "about": "“Alkyl deoxyglycoside-polymyxin combinations against critical priority carbapenem-resistant gram-negative bacteria” (Scientific Reports, 2024)", "key": {"K. pneumoniae CQ4921": {"test_system": "K. pneumoniae CQ4921", "experiment": "Broth microdilution MIC/MBC, glycosides with or without polymyxins", "format": "cell-based, Klebsiella pneumoniae", "settings": "for MIC: Klebsiella pneumoniae, CQ4921"}, "E. cloacae CQ1941": {"test_system": "E. cloacae CQ1941", "experiment": "Broth microdilution MIC/MBC, glycosides with or without polymyxins", "format": "cell-based", "settings": "for MIC: Enterobacter cloacae, CQ1941"}, "K. pneumoniae CQ1947": {"test_system": "K. pneumoniae CQ1947", "experiment": "Broth microdilution MIC, glycosides with or without polymyxins", "format": "cell-based, Klebsiella pneumoniae", "settings": "for MIC: Klebsiella pneumoniae, CQ1947"}, "P. aeruginosa CQ4924": {"test_system": "P. aeruginosa CQ4924", "experiment": "Broth microdilution MIC, glycosides with or without polymyxins", "format": "cell-based, Pseudomonas aeruginosa", "settings": "for MIC: Pseudomonas aeruginosa, CQ4924"}, "[1]": {"settings": "alone, read-out: MICA (MIC of each compound individually)"}, "[2]": {"settings": "combination with the lowest FICI"}, "[3]": {"settings": "compound + colistin, lowest FICI"}}, "note": "Like-named read-outs stand apart in the source and are kept apart here.", "data": [{"smiles": "CCCCCCCCCCCCO[C@H]1O[C@H](C)C[C@H](O)[C@H]1O", "note": "[Compound 1, dodecyl 4,6-dideoxy-α/β-D-xylo-hexopyranoside]", "values": [{"measurement": "MIC of colistin in combination with the compound", "setting": "K. pneumoniae CQ4921; Cpd conc. 0.4 μg/mL, strain C", "result": "> 0.5", "unit": "µg/mL"}, {"measurement": "MIC of colistin in combination with the compound", "setting": "K. pneumoniae CQ4921; Cpd conc. 0.8 μg/mL, strain C", "result": "> 0.5", "unit": "µg/mL"}, {"measurement": "MIC of colistin in combination with the compound", "setting": "K. pneumoniae CQ4921; Cpd conc. 3.125 μg/mL, strain C", "result": 0.25, "unit": "µg/mL"}, {"measurement": "MIC of colistin in combination with the compound", "setting": "K. pneumoniae CQ4921; Cpd conc. 6.25 μg/mL, strain C", "result": 0.25, "unit": "µg/mL"}, {"measurement": "MIC of colistin in combination with the compound", "setting": "K. pneumoniae CQ4921; Cpd conc. 12.5 μg/mL, strain C", "result": 0.25, "unit": "µg/mL"}, {"measurement": "MIC of colistin in combination with the compound", "setting": "K. pneumoniae CQ4921; Cpd conc. […], strain C", "result": 0.5, "unit": "µg/mL"}, {"measurement": "MIC", "setting": "K. pneumoniae CQ4921; agent alone, no adjuvant (polymyxin conc. 0), strain C, read-out: MIC", "result": "> 100", "unit": "µg/mL"}, {"measurement": "MIC", "setting": "K. pneumoniae CQ4921; [1]", "result": "> 100", "unit": "µg/mL"}, {"measurement": "MIC of compound in combination with PMB", "setting": "K. pneumoniae CQ4921; PMB 0.25 μg/mL, strain C", "result": "> 100", "unit": "µg/mL"}, {"measurement": "MIC of compound in combination with PMB", "setting": "K. pneumoniae CQ4921; PMB 0.5 μg/mL, strain C", "result": 1.6, "unit": "µg/mL"}, {"measurement": "MIC of compound in combination with colistin", "setting": "K. pneumoniae CQ4921; colistin 0.06 μg/mL, strain C", "result": "> 100", "unit": "µg/mL"}, {"measurement": "MIC of compound in combination with colistin", "setting": "K. pneumoniae CQ4921; colistin 0.125 μg/mL, strain C", "result": "> 100", "unit": "µg/mL"}, {"measurement": "MIC of compound in combination with colistin", "setting": "K. pneumoniae CQ4921; colistin 0.25 μg/mL, strain C", "result": 3.1, "unit": "µg/mL"}, {"measurement": "MIC of compound in combination with colistin", "setting": "K. pneumoniae CQ4921; colistin 0.5 μg/mL, strain C", "result": 1.6, "unit": "µg/mL"}, {"measurement": "MICA(A + B) (MIC of compound in combination with colistin)", "setting": "K. pneumoniae CQ4921; [2]", "result": 3.125, "unit": "mg/L"}, {"measurement": "MICB(A + B) (MIC of colistin in combination with compound)", "setting": "K. pneumoniae CQ4921; [2]", "result": 0.25, "unit": "mg/L"}, {"measurement": "Interpretation (of FICI)", "setting": "K. pneumoniae CQ4921; compound + colistin", "result": "Additive (from 0.5 to 1.0 were additive)"}, {"measurement": "FICI", "setting": "K. pneumoniae CQ4921; [3]", "result": 0.52}, {"measurement": "MIC of colistin in combination with the compound", "setting": "E. cloacae CQ1941; Cpd conc. 0.4 μg/mL, strain D", "result": "> 0.5", "unit": "µg/mL"}, {"measurement": "MIC of colistin in combination with the compound", "setting": "E. cloacae CQ1941; Cpd conc. 0.8 μg/mL, strain D", "result": 0.5, "unit": "µg/mL"}, {"measurement": "MIC of colistin in combination with the compound", "setting": "E. cloacae CQ1941; Cpd conc. 3.125 μg/mL, strain D", "result": 0.25, "unit": "µg/mL"}, {"measurement": "MIC of colistin in combination with the compound", "setting": "E. cloacae CQ1941; Cpd conc. 6.25 μg/mL, strain D", "result": 0.25, "unit": "µg/mL"}, {"measurement": "MIC of colistin in combination with the compound", "setting": "E. cloacae CQ1941; Cpd conc. 12.5 μg/mL, strain D", "result": 0.25, "unit": "µg/mL"}, {"measurement": "MIC of colistin in combination with the compound", "setting": "E. cloacae CQ1941; Cpd conc. […], strain D", "result": 0.25, "unit": "µg/mL"}, {"measurement": "MIC", "setting": "E. cloacae CQ1941; agent alone, no adjuvant (polymyxin conc. 0), strain D, read-out: MIC", "result": "> 100", "unit": "µg/mL"}, {"measurement": "MIC", "setting": "E. cloacae CQ1941; [1]", "result": "> 100", "unit": "µg/mL"}, {"measurement": "MIC of compound in combination with PMB", "setting": "E. cloacae CQ1941; PMB 0.25 μg/mL, strain D", "result": "> 100", "unit": "µg/mL"}, {"measurement": "MIC of compound in combination with PMB", "setting": "E. cloacae CQ1941; PMB 0.5 μg/mL, strain D", "result": 1.6, "unit": "µg/mL"}, {"measurement": "MIC of compound in combination with colistin", "setting": "E. cloacae CQ1941; colistin 0.06 μg/mL, strain D", "result": "> 100", "unit": "µg/mL"}, {"measurement": "MIC of compound in combination with colistin", "setting": "E. cloacae CQ1941; colistin 0.125 μg/mL, strain D", "result": "> 100", "unit": "µg/mL"}, {"measurement": "MIC of compound in combination with colistin", "setting": "E. cloacae CQ1941; colistin 0.25 μg/mL, strain D", "result": 1.6, "unit": "µg/mL"}, {"measurement": "MIC of compound in combination with colistin", "setting": "E. cloacae CQ1941; colistin 0.5 μg/mL, strain D", "result": 0.8, "unit": "µg/mL"}, {"measurement": "MICB(A + B) (MIC of colistin in combination with compound)", "setting": "E. cloacae CQ1941; [2]", "result": 0.25, "unit": "mg/L"}, {"measurement": "Interpretation (of FICI)", "setting": "E. cloacae CQ1941; compound + colistin", "result": "Additive (from 0.5 to 1.0 were additive)"}, {"measurement": "FICI", "setting": "E. cloacae CQ1941; [3]", "result": 0.52}, {"measurement": "MIC of colistin in combination with the compound", "setting": "K. pneumoniae CQ1947; Cpd conc. 0.4 μg/mL, strain F", "result": "> 0.5", "unit": "µg/mL"}, {"measurement": "MIC of colistin in combination with the compound", "setting": "K. pneumoniae CQ1947; Cpd conc. 0.8 μg/mL, strain F", "result": "> 0.5", "unit": "µg/mL"}, {"measurement": "MIC of colistin in combination with the compound", "setting": "K. pneumoniae CQ1947; Cpd conc. 3.125 μg/mL, strain F", "result": 0.5, "unit": "µg/mL"}, {"measurement": "MIC of colistin in combination with the compound", "setting": "K. pneumoniae CQ1947; Cpd conc. 6.25 μg/mL, strain F", "result": 0.5, "unit": "µg/mL"}, {"measurement": "MIC of colistin in combination with the compound", "setting": "K. pneumoniae CQ1947; Cpd conc. 12.5 μg/mL, strain F", "result": 0.5, "unit": "µg/mL"}, {"measurement": "MIC of colistin in combination with the compound", "setting": "K. pneumoniae CQ1947; Cpd conc. […], strain F", "result": "> 0.5", "unit": "µg/mL"}, {"measurement": "MIC", "setting": "K. pneumoniae CQ1947; agent alone, no adjuvant (polymyxin conc. 0), strain F, read-out: MIC", "result": "> 100", "unit": "µg/mL"}, {"measurement": "MIC", "setting": "K. pneumoniae CQ1947; [1]", "result": "> 100", "unit": "µg/mL"}, {"measurement": "MIC of compound in combination with PMB", "setting": "K. pneumoniae CQ1947; PMB 0.25 μg/mL, strain F", "result": "> 100", "unit": "µg/mL"}, {"measurement": "MIC of compound in combination with PMB", "setting": "K. pneumoniae CQ1947; PMB 0.5 μg/mL, strain F", "result": 3.1, "unit": "µg/mL"}, {"measurement": "MIC of compound in combination with colistin", "setting": "K. pneumoniae CQ1947; colistin 0.06 μg/mL, strain F", "result": "> 100", "unit": "µg/mL"}, {"measurement": "MIC of compound in combination with colistin", "setting": "K. pneumoniae CQ1947; colistin 0.125 μg/mL, strain F", "result": "> 100", "unit": "µg/mL"}, {"measurement": "MIC of compound in combination with colistin", "setting": "K. pneumoniae CQ1947; colistin 0.25 μg/mL, strain F", "result": "> 100", "unit": "µg/mL"}, {"measurement": "MIC of compound in combination with colistin", "setting": "K. pneumoniae CQ1947; colistin 0.5 μg/mL, strain F", "result": 3.1, "unit": "µg/mL"}, {"measurement": "MICA(A + B) (MIC of compound in combination with colistin)", "setting": "K. pneumoniae CQ1947; [2]", "result": 3.125, "unit": "mg/L"}, {"measurement": "MICB(A + B) (MIC of colistin in combination with compound)", "setting": "K. pneumoniae CQ1947; [2]", "result": 0.5, "unit": "mg/L"}, {"measurement": "Interpretation (of FICI)", "setting": "K. pneumoniae CQ1947; compound + colistin", "result": "Indifferent (1.0 to 4.0 were indifferent)"}, {"measurement": "FICI", "setting": "K. pneumoniae CQ1947; [3]", "result": 1.016}, {"measurement": "MIC of colistin in combination with the compound", "setting": "P. aeruginosa CQ4924; Cpd conc. 0.4 μg/mL, strain H", "result": "> 0.5", "unit": "µg/mL"}, {"measurement": "MIC of colistin in combination with the compound", "setting": "P. aeruginosa CQ4924; Cpd conc. 0.8 μg/mL, strain H", "result": "> 0.5", "unit": "µg/mL"}, {"measurement": "MIC of colistin in combination with the compound", "setting": "P. aeruginosa CQ4924; Cpd conc. 3.125 μg/mL, strain H", "result": "> 0.5", "unit": "µg/mL"}, {"measurement": "MIC of colistin in combination with the compound", "setting": "P. aeruginosa CQ4924; Cpd conc. 6.25 μg/mL, strain H", "result": "> 0.5", "unit": "µg/mL"}, {"measurement": "MIC of colistin in combination with the compound", "setting": "P. aeruginosa CQ4924; Cpd conc. 12.5 μg/mL, strain H", "result": "> 0.5", "unit": "µg/mL"}, {"measurement": "MIC of colistin in combination with the compound", "setting": "P. aeruginosa CQ4924; Cpd conc. […], strain H", "result": "> 0.5", "unit": "µg/mL"}, {"measurement": "MIC of compound in combination with PMB", "setting": "P. aeruginosa CQ4924; PMB 0.25 μg/mL, strain H", "result": "> 100", "unit": "µg/mL"}, {"measurement": "MIC of compound in combination with PMB", "setting": "P. aeruginosa CQ4924; PMB 0.5 μg/mL, strain H", "result": "> 100", "unit": "µg/mL"}, {"measurement": "MIC", "setting": "P. aeruginosa CQ4924; agent alone, no adjuvant (polymyxin conc. 0), strain H, read-out: MIC", "result": "> 100", "unit": "µg/mL"}, {"measurement": "MIC", "setting": "P. aeruginosa CQ4924; [1]", "result": "> 100", "unit": "µg/mL"}, {"measurement": "MIC of compound in combination with colistin", "setting": "P. aeruginosa CQ4924; colistin 0.06 μg/mL, strain H", "result": "> 100", "unit": "µg/mL"}, {"measurement": "MIC of compound in combination with colistin", "setting": "P. aeruginosa CQ4924; colistin 0.125 μg/mL, strain H", "result": "> 100", "unit": "µg/mL"}, {"measurement": "MIC of compound in combination with colistin", "setting": "P. aeruginosa CQ4924; colistin 0.25 μg/mL, strain H", "result": "> 100", "unit": "µg/mL"}]}]}
